Patent US12258368B2, “Disulfide-linked reversible terminators” (CENTRILLION TECHNOLOGY HOLDINGS CORPORATION, priority 2018, dated 2025)

System: DNA polymerase ("CENT1")
Assay: Enzymatic incorporation (primer extension) into a growing DNA chain, with runaway reaction
Format: biochemical
Conditions: for blockage of further extension after incorporation of the terminator: "runaway" reaction in the presence of all four unmodified dNTPs and a polymerase, lane 4; for further extension by the next base added after the cleavage: lane 6; for enzymatic incorporation: in the presence of DNA polymerase ("CENT1"), lane 3

| Structure (SMILES) | blockage of further extension after incorporation of the terminator | further extension by the next base added after the cleavage | enzymatic incorporation | continued extension in a "runaway" reaction after cleavage (all four unmodified dNTPs and a DNA polymerase, FIG. 4 lanes 7 and 8) |
| --- | --- | --- | --- | --- |
| CC(=O)SCO[C@H]1C[C@H](n2cc(C#CCNC(=O)OC(C)(C)C)c(=O)[nH]c2=O)O[C@@H]1COP(=O)(O)OP(=O)(O)OP(=O)(O)O [compound 60, S-((((2R,3S,5R)-5-(5-(3-((tert-butoxycarbonyl)amino)prop-1-yn-1-yl)-2,4-dioxo-3,4-dihydropyrimidin-1 (2H)-yl)-2-(((hydroxy((hydroxy(phosphonooxy)phosphoryl)oxy)phosphoryl)oxy)methyl)tetrahydrofuran-3-yl)oxy)methyl) ethanethioate] | blockage of further extension after incorporation of the terminator | further extension by the next base added | can be used in enzymatic incorporation | – |
| CSSCO[C@@H]1C[C@H](n2cc(C#CCNC(=O)OCCSSCCNC(=O)c3ccc(C4=c5cc6c(cc5Oc5cc7c(cc54)C(CS(=O)(=O)O)=CC(C)(C)N7)=NC(C)(C)C=C6CS(=O)(=O)O)cc3C(=O)O)c(=O)[nH]c2=O)O[C@@H]1COP(=O)(O)OP(=O)(O)OP(=O)(O)O [compound 75, (6-(3-carboxy-4-((2-((2-(((3-(1-((2R,4R,5R)-5-(((hydroxy((hydroxy(phosphonooxy)phosphoryl)oxy)phosphoryl)oxy)methyl)-4-((methyldisulfaneyl)methoxy)tetrahydrofuran-2-yl)-2,4-dioxo-1,2,3,4-tetrahydropyrimidin-5-yl)prop-2-yn-1-yl)carbamoyl)oxy)ethyl)disulfaneyl)ethyl)carbamoyl)phenyl)-2,2,10,10-tetramethyl-8-(sulfomethyl)-10,11-dihydro-2H-pyrano[3,2-g:5,6-g′]diquinolin-1-ium-4-yl)methanesulfonate] | excellent blockage | further extension with on base added | excellent enzymatic incorporation | continued extension |
